US12215354B2, “Differentiation of human embryonic stem cells into single hormonal insulin positive cells” (Janssen Biotech, Inc., priority 2011, dated 2025)

System: human embryonic stem cell line H1
Experiment: Real-time PCR gene expression, ascorbic acid at stages 3-5 (Example 11)
Assay type: cell-based
Settings: at stages 4-5
Experimental: Cells of the human embryonic stem cell line H1 at various passages (passage 40 to passage 52) were seeded as single cells at a density of 100,000 cells/cm^2 on MATRIGEL™ (1:30 dilution) coated dishes in mTesr™1 media and 10 μM of Y27632. Forty eight hours post seeding, cultures were differentiated into pancreatic endocrine lineage as follows: • a. Stage 1 (Definitive Endoderm (DE)−3 days): Prior to start of DE, the cultures were washed and incubated with incomplete PBS (no Mg or Ca) for 30 seconds followed by addition of the stage 1 media. Human embryonic stem cells cultured as single cells on MATRIGEL™-coated dishes were treated with MCDB-131 medium supplemented with 0.1% fatty acid-free BSA, 0.0012 g/ml sodium bicarbonate, 1× GLUTAMAX™, 5 mM D-Glucose, 100 ng/ml GDF8, and 1 μM MCX compound (GSK3B inhibitor) for one day. Cells were then treated with MCDB-131 medium supplemented with 0.1% fatty acid-free BSA, 0.0012 g/ml sodium bicarbonate, 1× GLUTAMAX™, 5 mM glucose, 100 ng/ml GDF8, and 100 nM MCX compound for day two, followed by an additional day in MCDB-131 medium supplemented with 0.1% fatty acid-free BSA, 0.0012 g/ml sodium bicarbonate, 1× GLUTAMAX™, 5 mM Glucose, and 100 ng/ml GDF8. • b. Stage 2 (Primitive gut tube−2 days): Stage 1 cells were treated with MCDB-131 medium supplemented with 0.1% fatty acid-free BSA, 0.0012 g/ml sodium bicarbonate, 1× GLUTAMAX™, 5 mM D-Glucose, and 25 ng/ml FGF7 for two days. • c. Stage 3 (Foregut−2 days): Stage 2 cells were treated with MCDB-131 medium supplemented with 1:200 dilution of ITS-X, 2.5 mM Glucose, 1× GLUTAMAX™, 0.0015 g/ml sodium bicarbonate, 2% fatty acid-free BSA, 10 ng/ml Activin A, 25 ng/ml FGF7, 0.25 μM SANT-1, 1 μM RA, 200 nM TPB (PKC activator), 100 nM LDN-193189 (BMP receptor inhibitor) for one day. Cells were then treated with MCDB-131 medium supplemented with 1:200 dilution of ITS-X, 2.5 mM Glucose, 1× GLUTAMAX™, 0.0015 g/ml sodium bicarbonate, 2% fatty acid-free BSA, 10 ng/ml Activin A, 25 ng/ml FGF7, 0.25 μM SANT-1, 1 μM RA, 200 nM TPB (PKC activator), 10 nM LDN-193189 for an additional day. […]

[1] = ascorbic acid added at stage 3 or at stages 3 and 4

## O=C1O[C@H]([C@@H](O)CO)C(O)=C1O [ascorbic acid]
0.25 mM ascorbic acid
  expression of pancreatic endoderm markers PDX-1 and NKX6.1: not significantly altered
[1]
  expression of insulin: increasing
  expression of somatostatin and glucagon: significantly decreased
